Test results as given in patent US12281083B2, “2-substituted amino-naphth (1,2-d) imidazol-5-one compounds of pharmaceutically acceptable salts thereof” (PTC Therapeutics, Inc., priority 2016, dated 2025).

The molecules below were run on Friedreich ataxia patient-derived human dermal fibroblasts (assay: Cell viability evaluation test using human dermal fibroblasts derived from a Friedreich ataxia patient (BSO stress)). Details: Fibroblast, rescue of cell viability, 30 μM BSO, 48 hours, Calcein-AM fluorescence, no BSO = 100%, BSO only = 0%.
Format: cell-based
Description: Cell Viability Evaluation Test Using Human Dermal Fibroblasts Derived from a Friedreich Ataxia Patient
Compounds described herein were tested for their ability to rescue Friedreich ataxia patient-derived dermal fibroblasts stressed by the addition of L-buthionine-(S,R)-sulfoximine (BSO).
A MEMα medium and a Medium 199 medium were obtained from Thermo Scientific, and fetal bovine serum was obtained from DS Pharma. Basic fibroblast growth factor (b-FGF) was purchased from Funakoshi Co., Ltd. and epidermal growth factor (EGF) was purchased from PeproTech Inc. L-Buthionine-(S,R)-sulfoximine and bovine pancreas-derived insulin were purchased from Sigma. Calcein-AM was purchased from DOJINDO. An assay medium is a medium of 64% MEMα medium and 25% Medium 199 medium, and contains 10% fetal bovine serum, EGF whose final concentration is 10 ng/ml, 10 ng/ml of bFGF, and 10 μg/mL insulin. Cells were purchased from Coriell Institute.
A test compound was dissolved in DMSO to make a 1 mM or 10 mM stock solution. From this stock solution, serially diluted solutions were further prepared using DMSO and used in an assay.
Friedreich ataxia patient-derived human dermal fibroblasts were suspended in an assay medium, seeded into a 384-well plate at 650 cells/well/20 μl, and incubated at 37° C. in a 5% carbon dioxide incubator overnight. A test compound solution prepared in an assay medium from the serially diluted solution (DMSO) at 5 times higher than the final concentration was added in 10 μL per well of the cell-seeded plate. Then, 10 μL of 150 μM BSO solution was added. The amount of a reaction solution was adjusted to be finally 50 μL, and the final BSO concentration was made at 30 μM. The plate was incubated at 37° C. in 5% CO2 for 48 hours, and then media were removed from all wells, and 20 μl of a Calcein-AM solution, which had been 550-fold diluted by PBS, was added to each well. The plate was incubated at 37° C. for 20 to 30 minutes, and then fluorescence (485 nm/525 nm of excitation/radiation wavelength) was measured by a fluorescence plate reader.
The degree of the viability of fibroblasts that were not treated with BSO was regarded as 100%, the degree of the viability of cells that were treated with BSO only (without a compound) was regarded as 0%, and the viability of cells that were treated with a compound was calculated.
`COc1ccc(C2=C3N=C(N(C)C)N=C3c3ccccc3C2=O)cc1` [Example 1, 2-(Dimethylamino)-4-(4-methoxyphenyl)-5H-naphth[1,2-d]imidazol-5-one] was tested, and the EC50 was 0.02 to 0.1 µM.
In the case of `Cc1ccc(C2=C3N=C(N(C)C)N=C3c3ccccc3C2=O)cc1` [Example 2], the EC50 is reported as 0.017 µM.
`COc1ccc(C2=C3N=C(N(C)C)N=C3c3ccccc3C2=O)cn1` [Example 3] was tested, and the EC50 was < 0.02 µM.
Molecule `Cc1ccccc1C1=C2N=C(N(C)C)N=C2c2ccccc2C1=O` [Example 4] has an EC50 of 0.0037 µM.
With `CN(C)C1=NC2=C(c3ccccc3F)C(=O)c3ccccc3C2=N1` [Example 5] the EC50 was 0.014 µM.
For `COc1ccc(C2=C3N=C(N(C)C)N=C3c3ccccc3C2=O)c(F)c1` [Example 8], the EC50 was 0.01 µM.
Molecule `COc1ccccc1C1=C2N=C(N(C)C)N=C2c2ccccc2C1=O` [Example 10] has an EC50 of 0.0051 µM.
In the case of `CN(C)C1=NC2=C(c3ccccc3N3CCOCC3)C(=O)c3ccccc3C2=N1` [Example 11], the EC50 is reported as 0.0064 µM.
`COc1cccc(F)c1C1=C2N=C(N(C)C)N=C2c2ccccc2C1=O` [Example 12] showed an EC50 of 0.0064 µM.
Molecule `CN(C)C1=NC2=C(c3ccccc3N3CCCC3)C(=O)c3ccccc3C2=N1` [Example 13] has an EC50 of 0.0054 µM.
`CN(C)C1=NC2=C(c3cccc4cccnc34)C(=O)c3ccccc3C2=N1` [Example 14] showed an EC50 of 0.041 µM.
In the case of `Cc1cccc(C2=C3N=C(N(C)C)N=C3c3ccccc3C2=O)c1` [Example 15], the EC50 is reported as 0.006 µM.
With `COc1ccc(C2=C3N=C(N(C)C)N=C3c3ccccc3C2=O)c(C)c1` [Example 16] the EC50 was 0.0091 µM.
`CN(C)C1=NC2=C(c3ccccc3N(C)C)C(=O)c3ccccc3C2=N1` [Example 17] gave an EC50 of 0.0085 µM.
`CN(C)C1=NC2=C(c3ccccc3C(F)(F)F)C(=O)c3ccccc3C2=N1` [Example 20] was tested, and the EC50 was < 0.003 µM.
For `Cc1cc(F)ccc1C1=C2N=C(N(C)C)N=C2c2ccccc2C1=O` [Example 21], the EC50 was 0.0079 µM.
With `Cc1cc(C(F)(F)F)ccc1C1=C2N=C(N(C)C)N=C2c2ccccc2C1=O` [Example 23] the EC50 was 0.0059 µM.
For `Cc1cc(OC(F)(F)F)ccc1C1=C2N=C(N(C)C)N=C2c2ccccc2C1=O` [Example 26], the EC50 was 0.0072 µM.
Work on `Cc1cnccc1C1=C2N=C(N(C)C)N=C2c2ccccc2C1=O` [Example 28] yielded an EC50 of 0.0048 µM.
`COc1ccc(C2=C3N=C(N(C)C)N=C3c3ccccc3C2=O)c(C(F)(F)F)c1` [Example 31] gave an EC50 of 0.015 µM.
`Cc1ccncc1C1=C2N=C(N(C)C)N=C2c2ccccc2C1=O` [Example 32] was tested, and the EC50 was 0.006 µM.
`CN(C)C1=NC2=C(c3ccccc3Cl)C(=O)c3ccccc3C2=N1` [Example 33] showed an EC50 of 0.016 µM.
In the case of `Cc1ncccc1C1=C2N=C(N(C)C)N=C2c2ccccc2C1=O` [Example 34], the EC50 is reported as 0.007 µM.
In the case of `Cc1nn(C)c(C)c1C1=C2N=C(N(C)C)N=C2c2ccccc2C1=O` [Example 35], the EC50 is reported as 0.0025 µM.
For `Cc1cc(C#N)ccc1C1=C2N=C(N(C)C)N=C2c2ccccc2C1=O` [Example 36], the EC50 was 0.0095 µM.
In the case of `CN(C)C1=NC2=C(c3cnn(C)c3)C(=O)c3ccccc3C2=N1` [Example 38], the EC50 is reported as 0.0188 µM.
For `Cc1noc(C)c1C1=C2N=C(N(C)C)N=C2c2ccccc2C1=O` [Example 39], the EC50 was 0.0061 µM.
With `CN(C)C1=NC2=C(c3ccc(N4CCOCC4)cc3)C(=O)c3ccccc3C2=N1` [Example 40] the EC50 was 0.0116 µM.
For `CN(C)C(=O)c1cccc(C2=C3N=C(N(C)C)N=C3c3ccccc3C2=O)c1` [Example 41], the EC50 was 0.0129 µM.
For `CN(C)C1=NC2=C(c3nn(C)c4ccccc34)C(=O)c3ccccc3C2=N1` [Example 42], the EC50 was 0.0051 µM.
Molecule `COCc1cccc(C2=C3N=C(N(C)C)N=C3c3ccccc3C2=O)c1` [Example 43] has an EC50 of 0.0201 µM.
For `Cc1ccc(C2=C3N=C(N(C)C)N=C3c3ccccc3C2=O)c(C)c1` [Example 44], the EC50 was 0.017 µM.
Work on `CCN(CC)C1=NC2=C(c3c(C)noc3C)C(=O)c3ccccc3C2=N1` [Example 46] yielded an EC50 of 0.0149 µM.
`Cc1noc(C)c1C1=C2N=C(N3CCOCC3)N=C2c2ccccc2C1=O` [Example 47] gave an EC50 of 0.0049 µM.
For `CCN(CC)C1=NC2=C(c3cccc4cn[nH]c34)C(=O)c3ccccc3C2=N1` [Example 51], the EC50 was 0.0118 µM.
In the case of `CN(C)C1=NC2=C(c3ccc4cnn(C)c4c3)C(=O)c3ccccc3C2=N1` [Example 56], the EC50 is reported as 0.0145 µM.
`CC(=O)Nc1cccc(C2=C3N=C(N(C)C)N=C3c3ccccc3C2=O)c1` [Example 59] was tested, and the EC50 was 0.004 µM.
Work on `Cc1cc(N2CCN(C)CC2)ccc1C1=C2N=C(N(C)C)N=C2c2ccccc2C1=O` [Example 62] yielded an EC50 of 0.0055 µM.
With `CCOc1ccc(C2=C3N=C(N(C)C)N=C3c3ccccc3C2=O)c(C)c1` [Example 63] the EC50 was 0.0184 µM.
`CCN(CC)C(=O)c1ccccc1C1=C2N=C(N(CC)CC)N=C2c2ccccc2C1=O` [Example 68] gave an EC50 of 0.0405 µM.
`CN(C)C1=NC2=C(c3ccccc3C#N)C(=O)c3ccccc3C2=N1` [Example 71, 2-[(2-dimethylamino)-5-oxo-5H-naphth[1,2-d]imidazol-4-yl]benzonitrile] showed an EC50 of 0.015 µM.
`CN(C)C1=NC2=C(c3ccc(N(C)C)cc3)C(=O)c3ccccc3C2=N1` [Example 72] gave an EC50 of 0.02 to 0.1 µM.
In the case of `CN(C)C1=NC2=C(c3ccccc3N3CCNCC3)C(=O)c3ccccc3C2=N1` [Example 73], the EC50 is reported as 0.0072 µM.
In the case of `CC(C)N1CCN(c2ccc(C3=C4N=C(N(C)C)N=C4c4ccccc4C3=O)cc2)CC1` [Example 74], the EC50 is reported as < 0.003 µM.
With `Cc1nn(C)cc1C1=C2N=C(N(C)C)N=C2c2ccccc2C1=O` [Example 75] the EC50 was 0.0121 µM.
`Cc1c(C2=C3N=C(N(C)C)N=C3c3ccccc3C2=O)cnn1-c1ccccc1` [Example 76] was tested, and the EC50 was 0.0203 µM.
Work on `CN(C)C1=NC2=C(c3ccc4c(c3)OCCN4C)C(=O)c3ccccc3C2=N1` [Example 77] yielded an EC50 of 0.017 µM.
With `Cc1nc(-c2ccccc2)sc1C1=C2N=C(N(C)C)N=C2c2ccccc2C1=O` [Example 78] the EC50 was > 0.1 µM.
`CN(C)C1=NC2=C(c3ccc4c(c3)OCCCO4)C(=O)c3ccccc3C2=N1` [Example 79] showed an EC50 of 0.0391 µM.
In the case of `CN1CCN(c2ccc(C3=C4N=C(N(C)C)N=C4c4ccccc4C3=O)cc2)CC1` [Example 80], the EC50 is reported as 0.01 µM.
`COc1ccc(C2=C3N=C(N(C)C)N=C3c3ccccc3C2=O)c(Cl)c1` [Example 82] showed an EC50 of 0.0165 µM.
`COc1ccc(C)c(C2=C3N=C(N(C)C)N=C3c3ccccc3C2=O)c1` [Example 83] gave an EC50 of 0.0183 µM.
With `COc1ccc(Cl)c(C2=C3N=C(N(C)C)N=C3c3ccccc3C2=O)c1` [Example 86] the EC50 was 0.0149 µM.
In the case of `COc1cccc(C2=C3N=C(N(C)C)N=C3c3ccccc3C2=O)c1C` [Example 87], the EC50 is reported as 0.0171 µM.
With `CCN(CC)C1=NC2=C(c3cccc(OC)c3C)C(=O)c3ccccc3C2=N1` [Example 88] the EC50 was 0.0171 µM.
Molecule `CC(=O)c1ccc(C2=C3N=C(N(C)C)N=C3c3ccccc3C2=O)c(C)c1` [Example 89] has an EC50 of 0.0143 µM.
With `COc1ccc(F)c(C2=C3N=C(N(C)C)N=C3c3ccccc3C2=O)c1` [Example 90] the EC50 was 0.014 µM.
`COc1cccc(C2=C3N=C(N(C)C)N=C3c3ccccc3C2=O)c1F` [Example 92] was tested, and the EC50 was 0.0302 µM.
`CCN(CC)C1=NC2=C(c3cccc(OC)c3F)C(=O)c3ccccc3C2=N1` [Example 93] showed an EC50 of 0.0291 µM.
Molecule `COc1cccc(C2=C3N=C(N(C)C)N=C3c3ccccc3C2=O)c1Cl` [Example 94] has an EC50 of 0.0226 µM.
